# According to patent US8877747B2, “Indenone derivative and pharmaceutical composition comprising same” (Korea Research Institute of Chemical Technology, priority 2009, dated 2014):
# Counter-ions that a name gives are not always drawn.
# System: MC3T3-E1 cells
# Assay: ALP activity, differentiation of osteoblast cells
# Format: cell-based
# Conditions: Mus musculus, MC3T3-E1, 144 h; MC3T3E1 cells treated with 10 μM compound and OF; relates activity to OF-only group (100%); higher = more efficacious
# Procedure: To examine the effects of the inventive indenone derivatives on the differentiation and activation of osteoblast cells, the activity and expression of alkaline phosphatase (ALP), a marker for the differentiation of osteoblast cells, and the bone nodule formation using a mouse derived osteoblast-like cells, MC3T3-E1 (ATCC, Japan) or a primary mouse calvaria derived preosteoblastic cells were observed.
# MC3T3-E 1 cells were seeded in a medium containing osteogenic factors (OF) such as ascorbic acids and β-glycerophosphates (b-GP), and each compound of Examples was added thereto at a concentration of 0.1, 1 and 10 μM. The cells were incubated for 6 days (MC3T3-E1 cells) or 7 days (primary mouse calvaria derived preosteoblastic cells) in a 37° C. CO2 incubator. Then, the culture medium was replaced with a fresh medium together with the test compound every two or three days. On the last day, the medium was centrifuged to remove the supernatant, and the cells were washed with PBS. The washed cells were subjected to a 3-cycle freege-thaw treatment using a −70° C. deep freezer to allow enzymes elute in a lysis buffer. The lysed protein was quantified, followed by measurement of ALP activity using 4-nitrophenylphosphate.
# Further, a group treated only with DMSO or OF was tested for ALP activities for comparison.
row,Compound,activity at 10 µM
1,"COc1ccc(C2=C(c3ccccc3)c3ccc(OCCN4CCOCC4)cc3C2=O)cc1F [Example 2, 6-(2-morpholinoethoxy)-2-(3-fluoro-4-methoxyphenyl)-3-phenyl-1H-inden-1-one]",221%
2,"O=C1C(c2cnc3ccccc3c2)=C(c2ccccc2)c2ccc(OCCN3CCOCC3)cc21 [Example 3, 6-(2-morpholinoethoxy)-3-phenyl-2-(quinolin-3-yl)-1H-inden-1-one]",216%
3,"NC(=O)c1ccc(C2=C(c3ccccc3)c3ccc(OCCN4CCOCC4)cc3C2=O)cc1 [Example 4, 4-(6-(2-morpholinoethoxy)-1-oxo-3-phenyl-1H-inden-2-yl)benzamide]",128%
4,"N#Cc1cccc(C2=C(c3ccccc3)c3ccc(OCCN4CCOCC4)cc3C2=O)c1 [Example 5, 3-(6-(2-morpholinoethoxy)-1-oxo-3-phenyl-1H-inden-2-yl)benzonitrile]",44%
5,"COc1ccc(C2=C(c3ccccc3)c3ccc(OCCN4CCOCC4)cc3C2=O)cn1 [Example 6, 6-(2-morpholinoethoxy)-2-(6-methoxypyridin-3-yl)-3-phenyl-1H-inden-1-one]",63%
6,"O=C1C(c2ccc(F)nc2)=C(c2ccccc2)c2ccc(OCCN3CCOCC3)cc21 [Example 9, 6-(2-morpholinoethoxy)-2-(6-fluoropyridin-3-yl)-3-phenyl-1H-inden-1-one]",87%
7,"O=C1C(c2ccc(-c3ccccc3)cc2)=C(c2ccccc2)c2ccc(OCCN3CCOCC3)cc21 [Example 10, 6-(2-morpholinoethoxy)-2-(4-(phenyl)phenyl)-3-phenyl-1H-inden-1-one]",172%
8,"Cc1ccc(C2=C(c3ccccc3)c3ccc(OCCN4CCOCC4)cc3C2=O)cc1 [Example 11, 6-(2-morpholinoethoxy)-3-phenyl-2-p-tolyl-1H-inden-1-one]",649%
9,"N#Cc1ccccc1C1=C(c2ccccc2)c2ccc(OCCN3CCOCC3)cc2C1=O [Example 12, 2-(6-(2-morpholinoethoxy)-1-oxo-3-phenyl-1H-inden-2-yl)benzonitrile]",365%
10,"O=C1C(c2ccc(C(F)(F)F)cc2)=C(c2ccccc2)c2ccc(OCCN3CCOCC3)cc21 [Example 13, 6-(2-morpholinoethoxy)-2-(4-(trifluoromethyl)phenyl)-3-phenyl-1H-inden-1-one]",151%
11,"CC(=O)Nc1cccc(C2=C(c3ccccc3)c3ccc(OCCN4CCOCC4)cc3C2=O)c1 [Example 14, N-(3-(6-(2-morpholinoethoxy)-1-oxo-3-phenyl-1H-inden-2-yl)phenyl)acetamide]",131%
12,"O=C1C(c2cncc3ccccc23)=C(c2ccccc2)c2ccc(OCCN3CCOCC3)cc21 [Example 15, 6-(2-morpholinoethoxy)-2-(isoquinolin-4-yl)-3-phenyl-1H-inden-1-one]",65%
13,"O=C1C(c2ccc3ccccc3c2)=C(c2ccccc2)c2ccc(OCCN3CCOCC3)cc21 [Example 16, 6-(2-morpholinoethoxy)-2-(naphthalen-3-yl)-3-phenyl-1H-inden-1-one]",713%
14,"O=C1C(c2ccc(F)cc2)=C(c2ccccc2)c2ccc(OCCN3CCOCC3)cc21 [Example 17, 6-(2-morpholinoethoxy)-2-(4-fluorophenyl)-3-phenyl-1H-inden-1-one]",236%
15,"O=C1C(c2ccc(F)c(F)c2)=C(c2ccccc2)c2ccc(OCCN3CCOCC3)cc21 [Example 18, 6-(2-morpholinoethoxy)-2-(3,4-difluorophenyl)-3-phenyl-1H-inden-1-one]",349%
16,"Cc1ccc(C2=C(c3ccccc3)c3ccc(OCCN4CCOCC4)cc3C2=O)cc1F [Example 19, 6-(2-morpholinoethoxy)-2-(3-fluoro-4-methylphenyl)-3-phenyl-1H-inden-1-one]",220%
17,"Nc1cccc(C2=C(c3ccccc3)c3ccc(OCCN4CCOCC4)cc3C2=O)c1 [Example 20, 6-(2-morpholinoethoxy)-2-(3-aminophenyl)-3-phenyl-1H-inden-1-one]",283%
18,"O=C1C(c2ccc(Oc3ccccc3)cc2)=C(c2ccccc2)c2ccc(OCCN3CCOCC3)cc21 [Example 21, 6-(2-morpholinoethoxy)-2-(4-phenoxyphenyl)-3-phenyl-1H-inden-1-one]",130%
19,"COc1ccc(C2=C(c3ccccc3)c3ccc(OCCN4CCOCC4)cc3C2=O)cc1 [Example 22, 6-(2-morpholinoethoxy)-2-(4-methoxyphenyl)-3-phenyl-1H-inden-1-one]",169%

row,Compound,activity at 10 µM
1,"O=C1C(c2ccc(Cl)cc2)=C(c2ccccc2)c2ccc(OCCN3CCOCC3)cc21 [Example 23, 6-(2-morpholinoethoxy)-2-(4-chlorophenyl)-3-phenyl-1H-inden-1-one]",162%
2,"O=C1C(c2cccnc2)=C(c2ccc(F)cc2)c2ccc(OCCN3CCOCC3)cc21 [Example 24, 6-(2-morpholinoethoxy)-3-(4-fluorophenyl)-2-(pyridin-3-yl)-1H-inden-1-one]",121%
3,"O=C1C(c2cncnc2)=C(c2ccc(F)cc2)c2ccc(OCCN3CCOCC3)cc21 [Example 25, 6-(2-morpholinoethoxy)-3-(4-fluorophenyl)-2-(pyrimidin-5-yl)-1H-inden-1-one]",105%
4,"O=C1C(c2ccc(F)c(F)c2)=C(c2ccc(F)cc2)c2ccc(OCCN3CCOCC3)cc21 [Example 26, 6-(2-morpholinoethoxy)-2-(3,4-difluorophenyl)-3-(4-fluorophenyl)-1H-inden-1-one]",79%
5,"O=C1C(c2ccc(C(F)(F)F)cc2)=C(c2ccc(F)cc2)c2ccc(OCCN3CCOCC3)cc21 [Example 27, 6-(2-morpholinoethoxy)-2-(4-(trifluoromethyl)phenyl)-3-(4-fluorophenyl)-1H-inden-1-one]",75%
6,"O=C1C(c2cccnc2)=C(c2ccc(Cl)cc2)c2ccc(OCCN3CCOCC3)cc21 [Example 28, 6-(2-morpholinoethoxy)-3-(4-chlorophenyl)-2-(pyridin-3-yl)-1H-inden-1-one]",134%
7,"O=C1C(c2ccc(F)c(F)c2)=C(c2ccc(Cl)cc2)c2ccc(OCCN3CCOCC3)cc21 [Example 29, 6-(2-morpholinoethoxy)-3-(4-chlorophenyl)-2-(3,4-difluorophenyl)-1H-inden-1-one]",84%
8,"O=C1C(c2cncnc2)=C(c2ccc(Cl)cc2)c2ccc(OCCN3CCOCC3)cc21 [Example 30, 6-(2-morpholinoethoxy)-3-(4-chlorophenyl)-2-(pyrimidin-5-yl)-1H-inden-1-one]",150%
9,"O=C1C(c2ccc(C(F)(F)F)cc2)=C(c2ccc(C(F)(F)F)cc2)c2ccc(OCCN3CCOCC3)cc21 [Example 33, 6-(2-morpholinoethoxy)-2,3-bis(4-(trifluoromethyl)phenyl)-1H-inden-1-one]",65%
10,"O=C1C(c2ccc(F)c(F)c2)=C(c2ccc(C(F)(F)F)cc2)c2ccc(OCCN3CCOCC3)cc21 [Example 34, 6-(2-morpholinoethoxy)-3-(4-(trifluoromethyl)phenyl)-2-(3,4-difluorophenyl)-1H-inden-1-one]",78%
11,"O=C1C(c2cncnc2)=C(c2ccc(C(F)(F)F)cc2)c2ccc(OCCN3CCOCC3)cc21 [Example 35, 6-(2-morpholinoethoxy)-3-(4-(trifluoromethyl)phenyl)-2-(pyrimidin-5-yl)-1H-inden-1-one]",79%
12,"O=C1C(c2cccnc2)=C(c2cc(F)cc(F)c2)c2ccc(OCCN3CCOCC3)cc21 [Example 36, 6-(2-morpholinoethoxy)-3-(3,5-difluorophenyl)-2-(pyridin-3-yl)-1H-inden-1-one hydrochloride salt]",224%
13,"O=C1C(c2ccc(C(F)(F)F)cc2)=C(c2cc(F)cc(F)c2)c2ccc(OCCN3CCOCC3)cc21 [Example 37, 6-(2-morpholinoethoxy)-2-(4-(trifluoromethyl)phenyl)-3-(3,5-difluorophenyl)-1H-inden-1-one]",80%
14,"O=C1C(c2ccc(F)c(F)c2)=C(c2cc(F)cc(F)c2)c2ccc(OCCN3CCOCC3)cc21 [Example 38, 6-(2-morpholinoethoxy)-2-(3,4-difluorophenyl)-3-(3,5-difluorophenyl)-1H-inden-1-one]",77%
15,"O=C1C(c2cncnc2)=C(c2cc(F)cc(F)c2)c2ccc(OCCN3CCOCC3)cc21 [Example 39, 6-(2-morpholinoethoxy)-3-(3,5-difluorophenyl)-2-(pyrimidin-5-yl)-1H-inden-1-one]",92%
16,"C[n+]1cccc(C2=C(c3ccccc3)c3ccc(OCC[N+]4(C)CCOCC4)cc3C2=O)c1 [Example 40, 4-methyl-4-(2-{[2-(1-methylpyridin-1-ium-3-yl)-1-oxo-3-phenyl-1H-inden-6-yl]oxy}ethyl)morpholin-4-ium diiodide]",291%
17,"C[n+]1cccc(C2=C(c3ccccc3)c3ccc(OCCN4CCOCC4)cc3C2=O)c1 [Example 41, 1-methyl-3-{6-[2-(morpholin-4-yl)ethoxy]-1-oxo-3-phenyl-1H-inden-2-yl}pyridin-1-ium iodide]",329%
18,"O=C1C(c2ccc[n+]([O-])c2)=C(c2ccccc2)c2ccc(OCC[N+]3([O-])CCOCC3)cc21 [Example 43, 4-oxido-4-(2-{[2-(1-oxidopyridin-1-ium-3-yl)-1-oxo-3-phenyl-1H-inden-6-yl]oxy}ethyl)morpholin-4-ium]",125%
